In patent US10640524B2, “Prototype systems of theranostic biomarkers for in vivo molecular management of cancer” (EPOS-IASIS RESEARCH AND DEVELOPMENT, LTD, priority 2015, dated 2020):

Tests used:
[1] = tested on: colon cancer cells (SW480); assay: Antiproliferative effect of A1F-D1F on colon cancer cells; format: cell-based; settings: for effect on cell viability with respect to the control (no drug): SW480, FIG. 3; for cell viability with respect to the control: human, 24 h
Method: The antiproliferative effect of the following compounds A1F, B1F, C1F and D1F were tested on colon cancer cells (SW480).

[2] = In vivo biodistribution by quantitative fluorescence imaging; parameters: species or system mouse
Method: A study of the in vivo biodistribution of a dicarboxylic ester of γ-Tocotrienol (DCE-γT) (enabled by customized histopathologic processing and quantitative fluorescence imaging) was performed. The study disclosed liver uptake as a function of time defining fluorescent chromanol esters as valued molecular probes. The structure of the dicarboxylic ester of γ-Tocotrienol (DCE-γT) is as follows:
Fluorescent signals of the DCE-γT and its free fluorescent metabolite, corresponding to the fluorescent ligand, peaked at 30 min and 3 hrs respectively, which was in agreement with in vitro findings. Colon uptake as a function of time confirms the mitochondrial predilection of the esterified chromanols and claims a new generation of optically active mitocans.

[3] = biological target: T1, EGFR membrane tyrosine kinase receptor (Homo sapiens, UniProt P00533); assay: FRET between EGFR-Luc and fluorescent ester in transfected cells; format: cell-based; settings: EGFR negative colon cancer cells transfected with EGFR-Luc plasmid; FIG. 5
T1 construct: expressed in transfected cells
Method: The fluorescent esters of the natural products disclosed herein can also be used as molecular probes for deciphering the interaction between the natural product and potential biomarkers in cancer cells. EGFR negative colon cancer cells were transiently transfected with a rationally designed EGFR-Luc plasmid and incubated with the DCE-γ-Tocotrienol ester. Bioluminescence of the Luciferase (donor) was assessed against the fluorescence signal of either the DCE-γ-Tocotrienol ester or the hydrolysis product (acceptor).

[4] = tested on: EGFR-Luc and Grb2-GFP interaction; assay: BRET of the interaction between EGFR-Luc and Grb2-GFP; format: cell-based
SW620 cells = assay: Label-free temporal quantitative pharmacoproteomics; format: cell-based; settings: 0.04 mM
Method: The following experiment was performed to uncover new biomarkers of therapeutic response to the anticancer efficacy of the natural product based theranostic systems of the present invention.
In this experiment, SW620 cells were seeded in T75 flasks in DMEM, 10% FBS and 1% Penicillin/Streptomycin (all from Gibco). The cells were allowed to attach overnight. The following day the medium was removed and fresh medium containing 0.04 mM of either γT (γ-tocotrienol) or DCE-γT (diluted in absolute ethanol; final concentration of ethanol in the medium was 0.1% v/v). For control untreated cells, equal amount of fresh medium (containing ethanol at 0.1% v/v final concentration) was added.
SW620 cells were harvested after 24, 36 and 48 hrs of incubation with γT or DCE-γT. Briefly, the medium was removed and the cells were rinsed three times with PBS (without Ca, Mg) (Gibco). Fresh PBS was added and the cells were scraped off the flasks and collected in tubes. Collected cells were centrifuged at 1000 rpm (165 g) for 3 min and the supernatant was removed. The cell pellet was re-suspended in PBS and the centrifugation step was repeated. The supernatant was removed and the cells in minimal residual PBS were snap-freezed in liquid nitrogen. Once frozen the cells were stored in −80° C. until the proteomics analysis.
In terms of data analysis, a threshold of relative protein abundance equal or greater than 1.5-fold increase or decrease was set.

LoVo cells = assay: MTT colorimetric assay of antiproliferative efficacy; format: cell-based; settings: FIG. 4

C=CC(=O)Nc1cc2c(NCc3cccc4ccccc34)ncnc2cc1NC(=O)CCl [C1F]
effect on cell viability with respect to the control (no drug) [1]: reduce the viability of the cells | cell viability with respect to the control [1]: 20%

dicarboxylic ester of γ-Tocotrienol [DCE-γT]
time of peak fluorescent signal ([2]; in vivo biodistribution, liver uptake as a function of time): 30 min | blood brain barrier passage ([2]; uptake by mouse brain parenchyma cells): able to pass the blood brain barrier | FRET signal [3]: amplified FRET signal | activation within the EGFR axis [4]: neither the ester nor the hydrolysis products elicit any unwanted activation | number of proteins whose expression was elicited (SW620 cells; 24 hrs): 37 | number of proteins whose expression was elicited (SW620 cells; 36 hrs): 30 | number of proteins whose expression was elicited (SW620 cells; 48 hrs): 29 | decrease in DNA repair factors (SW620 cells; versus untreated control): 2 fold | decrease in protein level of histone H3 types (SW620 cells; versus untreated control): at least 6 fold | decrease in protein level of snRNPs (SW620 cells; versus untreated control): 2 fold | increase in histone H2A.Z (SW620 cells; versus untreated control): 23 fold | increase in histone H3 forms (SW620 cells; versus untreated control): ≥ 1.8 fold

CC1(C)C(/C=C/C=C/C=C/C=C2\N(CCCCS(=O)(=O)[O-])c3ccc4ccccc4c3C2(C)C)=[N+](CCCCS(=O)(=O)[O-])c2ccc3ccccc3c21.[Na+] [free cyanine dye, indocyanine green, reference compound]
antiproliferative efficacy (LoVo cells): did not exhibit any antiproliferative effects

CCN1\C(=C/C=C/C=C/C=C/C2=[N+](CCCCCC(=O)NCC(=O)Nc3cccc(Nc4ncnc5ccc(NC(=O)COC)cc45)c3)c3ccc4ccccc4c3C2(C)C)C(C)(C)c2c1ccc1ccccc21.[Br-] [theranostic system]
antiproliferative efficacy (LoVo cells): significantly higher antiproliferative efficacy than free anilinoquinazoline

CC(C)=CCC/C(C)=C/CC/C(C)=C/CC[C@]1(C)CCc2cc(O)c(C)c(C)c2O1 [γT, γ-tocotrienol, reference compound]
decrease in protein level of histone H2B types (SW620 cells; versus untreated control): 1.8 fold | decrease in protein level of histone H3 types (SW620 cells; versus untreated control): at least 3.7 fold | decrease in protein level of hnRNPs (SW620 cells; versus untreated control): at least 2 fold | decrease in protein level of snRNPs (SW620 cells; versus untreated control): 1.8 fold | increase in histone H2A.Z (SW620 cells; versus untreated control): 24 fold | increase in level of RNA helicases (SW620 cells; versus untreated control): ≥ 1.9 fold | increase in level of certain snRNP components (SW620 cells; versus untreated control): ≥ 3 fold | increase in level of transcription regulators/co-factors (SW620 cells; versus untreated control): ≥ 2 fold

C=CC(=O)Nc1cc2c(Nc3ccc(Br)cc3)ncnc2cc1NC(=O)CCl [A1F]
effect on cell viability with respect to the control (no drug) [1]: reduce the viability of the cells | cell viability with respect to the control [1]: 20%

C=CC(=O)Nc1cc2c(Nc3ccc(C(C)(C)C)cc3)ncnc2cc1NC(=O)CCl [D1F]
effect on cell viability with respect to the control (no drug) [1]: reduce the viability of the cells | cell viability with respect to the control [1]: 20%

C=CC(=O)Nc1cc2c(Nc3ccc(C(C)C)cc3)ncnc2cc1NC(=O)CCl [B1F]
effect on cell viability with respect to the control (no drug) [1]: reduce the viability of the cells
